{"source": "patent US6924092B1", "about": "“Screening method involving MGDG synthase” (Commissariat a L'Energie Atomique, priority 1999, dated 2005)", "key": {"[1]": {"target": "T1, rMGD A (overexpressed spinach MGDG synthase) (Spinacia oleracea, UniProt Q9SM44)", "T1 construct": "Two mature forms of MGDG synthase are overexpressed in E. coli; additional initiation methionine (N); made in house; host or cells: E. coli BL21(DE3), plasmid pET-Y 3a; solubilised with CHAPS and partially purified on hydroxyapatite", "T1 sequence (Q9SM44 99-522)": "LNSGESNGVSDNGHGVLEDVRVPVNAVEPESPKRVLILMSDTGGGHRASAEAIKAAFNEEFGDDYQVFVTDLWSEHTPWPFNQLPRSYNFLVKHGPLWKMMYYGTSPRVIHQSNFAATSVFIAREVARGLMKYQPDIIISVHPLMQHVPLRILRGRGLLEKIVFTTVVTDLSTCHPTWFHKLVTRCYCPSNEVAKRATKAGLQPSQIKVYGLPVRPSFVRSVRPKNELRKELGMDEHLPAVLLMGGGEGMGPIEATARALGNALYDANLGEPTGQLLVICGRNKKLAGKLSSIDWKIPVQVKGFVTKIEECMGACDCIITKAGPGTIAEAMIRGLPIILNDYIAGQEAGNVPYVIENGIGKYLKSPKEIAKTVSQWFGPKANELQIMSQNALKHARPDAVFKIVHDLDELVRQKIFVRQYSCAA", "experiment": "Galactosylation activity of partially purified recombinant MGDG synthase (rMGD A), measured with micelles and UDP-[14C]gal", "format": "biochemical", "settings": "for Inhibition of rMGD A activity (in words): overexpressed rMGD A; for activity at 150 µM: 150 μM NEM 10 min, % of control", "protocol": "The activity of the MGDG synthase is measured on various types of sample, depending on the model chosen: plastidial membrane, membrane fractions of E. coli overexpressing a recombinant MGDG synthase (rMGD A, 0.7 μg protein/assay, enzyme extracted beforehand from a plant (see Example 1)).\n1.3 mM of phosphatidylglycerol (PG) and 160 μM of diacylglycerol (DAG) are dissolved in chloroform. After evaporating the solvent under argon, 200 μl of incubation medium containing 50 mM of MOPS-NaOH, pH 7.8, 4.5 mM OF CHAPS, 1 mM of DTT, 250 mM of KH2PO4/K2HPO4 and 250 mM of KCl are added and the medium is mixed vigorously so as to resuspend the lipids. 100 μl of fractions containing the MGDG synthase, in the incubation medium, are introduced then the medium is again mixed vigorously and then maintained at 20° C. for 1 h.\nThe reaction in the incubation mixture is then initiated by adding 1 mM of UDP-[^14C]gal (37 Bq/μmol). After 10 min to 1 h, the reaction is stopped by adding a chloroform/methanol mixture (1:2, v/v), the lipids are extracted in accordance with the method of Bligh et al (Can. J. Biochem. Physiol, 1959, 37, 911-917) and the radioactivity of the labeled galactolipids is determined by liquid scintillation counting as described in Covès et al. (FEBS lett., 1986, 208, 401-406). The activity is expressed in μmol of galactose incorporated/h/mg of protein.\nThe fractions of partially purified rMGD A are desalified by chromatography on a Biogel P6-DG (Bio-Rad) column (Pharmacia, C10/40 column, 30 ml of gel) equilibrated in DTT. Aliquots (200 μl) of the fractions are incubated for 40 minutes at 25° C. with gentle stirring, in the presence or absence of DTT. The galactosylation activity is then measured as specified above (see Example 3).\nIn order to obtain the results summarized in Table II, the rMGD A is desalified by chromatography on a Biogel P6-DG (Bio-Rad) column (Pharmacia, C10/40, column, 30 ml of gel) equilibrated in DTT. Aliquots (200 μl) of the fractions are incubated for 30 minutes at 25° C. with gentle stirring, followed by a 10 min incubation in the presence or absence of 150 μM NEM and then a 10 min incubation in the presence or absence of DTT. The galactosilyation activity is then measured as specified above (see Example 3)."}, "[2]": {"target": "T2, MGDG synthase partially purified from spinach leaf chloroplasts (Spinacia oleracea, UniProt Q9SM44)", "T2 construct": "the MGDG synthase partially purified from spinach leaf chloroplasts; host or cells: spinach leaf chloroplasts (envelope membranes)", "T2 sequence (Q9SM44 99-522)": "T1 sequence (Q9SM44 99-522)", "settings": "chloroplast envelope enzyme, Maréchal et al., J. Biol. Chem., 1995; cited from earlier work"}}}
{"smiles": "O[C@H](CS)[C@H](O)CS", "note": "(racemic) [DTT, dithiothreitol]", "values": [{"measurement": "Effect of DTT on rMGD A activity after desalification (in words)", "setting": "[1]; DTT removed on Biogel P6-DG column, DTT added back", "value": "maintains its activity"}, {"measurement": "Activity (%)", "setting": "[1]; desalified hydroxyapatite fraction + 1 mM DTT, 40 min at 25° C., percentage of the control (not desalified) activity", "value": 75, "unit": "%"}, {"measurement": "Activity (%)", "setting": "[1]; desalified hydroxyapatite fraction + 10 mM DTT, 40 min at 25° C., percentage of the control (not desalified) activity", "value": 65, "unit": "%"}, {"measurement": "activity at 10000 µM", "setting": "[1]; desalified rMGD A, pre-incubation 30 min without addition, no NEM, then 10 mM DTT 10 min, % of control (50 min in 10 mM DTT)", "value": 101, "unit": "%"}, {"measurement": "Protection of enzyme activity against oxidation (in words)", "setting": "[2]", "value": "can protect the activity of the enzyme against oxidation"}]}
{"smiles": "CCN1C(=O)C=CC1=O", "note": "[NEM, N-ethylmaleimide]", "values": [{"measurement": "Inhibition of rMGD A activity (in words)", "setting": "[1]", "value": "very sensitive"}, {"measurement": "activity at 150 µM", "setting": "[1]; pre-incubation 30 min with DTT, no further DTT incubation, reaction + PG + DAG + UDP-gal", "value": 108, "unit": "%"}, {"measurement": "activity at 150 µM", "setting": "[1]; pre-incubation 30 min with PG + DAG, then 10 mM DTT 10 min, reaction + UDP-gal", "value": 60, "unit": "%"}, {"measurement": "activity at 150 µM", "setting": "[1]; pre-incubation 30 min with PG, then 10 mM DTT 10 min, reaction + DAG + UDP-gal", "value": 56, "unit": "%"}, {"measurement": "activity at 150 µM", "setting": "[1]; pre-incubation 30 min with UDP-gal, then 10 mM DTT 10 min, reaction + PG + DAG", "value": 32, "unit": "%"}, {"measurement": "activity at 150 µM", "setting": "[1]; pre-incubation 30 min without addition, then 10 mM DTT 10 min, reaction + PG + DAG + UDP-gal", "value": 35, "unit": "%"}, {"measurement": "Inhibition of the enzyme (in words)", "setting": "[2]", "value": "powerful inhibitors"}]}
{"smiles": "c1cnc2c(c1)ccc1cccnc12", "note": "[orthophenanthroline]", "values": [{"measurement": "Inhibition of rMGD A activity (in words)", "setting": "[1]", "value": "inhibited"}, {"measurement": "Activity (%)", "setting": "[1]; with orthophenanthroline, no other additions, initial activity (time 0) = 100", "value": 43, "unit": "%"}, {"measurement": "Activity (%)", "setting": "[1]; with orthophenanthroline, other addition PG, initial activity (time 0) = 100", "value": 27, "unit": "%"}, {"measurement": "Activity (%)", "setting": "[1]; with orthophenanthroline, other addition UDP-gal, initial activity (time 0) = 100", "value": 17, "unit": "%"}, {"measurement": "Activity (%)", "setting": "[1]; with orthophenanthroline, other additions PG + DAG, initial activity (time 0) = 100", "value": 92, "unit": "%"}, {"measurement": "Inhibition of the enzyme (in words)", "setting": "[2]", "value": "powerful inhibitors"}]}
